This experiment has as its target T1, Sterol O-acyltransferase 1 (Rattus norvegicus, UniProt O70536).
T1 sequence (O70536 whole entry): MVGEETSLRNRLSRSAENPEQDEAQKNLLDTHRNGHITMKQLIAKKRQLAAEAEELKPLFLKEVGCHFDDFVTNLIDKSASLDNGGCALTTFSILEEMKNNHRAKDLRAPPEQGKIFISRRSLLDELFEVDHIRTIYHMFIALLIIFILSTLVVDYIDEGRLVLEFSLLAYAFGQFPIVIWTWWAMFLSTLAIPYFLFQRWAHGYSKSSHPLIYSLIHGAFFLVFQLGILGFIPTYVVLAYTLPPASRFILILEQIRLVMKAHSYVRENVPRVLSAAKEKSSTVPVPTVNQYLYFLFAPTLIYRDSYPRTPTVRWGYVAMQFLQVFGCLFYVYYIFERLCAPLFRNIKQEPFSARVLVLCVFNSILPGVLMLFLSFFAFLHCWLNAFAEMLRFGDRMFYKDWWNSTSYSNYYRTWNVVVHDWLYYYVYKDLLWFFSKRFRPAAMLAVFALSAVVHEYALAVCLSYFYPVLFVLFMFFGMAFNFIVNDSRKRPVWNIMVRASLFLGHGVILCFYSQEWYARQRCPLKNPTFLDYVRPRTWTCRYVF
The experiment in a line: Inhibition of rat liver microsomal ACAT. In general terms: Liver microsomes are vesicles of endoplasmic reticulum, rich in cytochrome P450 enzymes.

Molecules are shown by their SMILES.

Take `C=C1[C@@H](O)[C@H](O)C[C@]2(C)[C@H]3C=C[C@]45OC(=O)[C@@]6(CC[C@@H](C)[C@H](C)[C@H]64)CC[C@@]5(C)[C@]3(C)CC[C@@H]12` [ILEKUDINOL A]: the IC50 (usually the point on the concentration scale where inhibition reaches its midpoint) was found to be 154 µM. Turning to `C[C@H]1[C@H](C)CC[C@]2(C(=O)O)CC[C@]3(COC(=O)/C=C/c4ccc(O)cc4)C(=CC[C@@H]4[C@@]5(C)CC[C@H](O)C(C)(C)[C@@H]5CC[C@]43C)[C@H]12`, inhibition was half-maximal at 73 µM (IC50). Against the preceding compound, the IC50 is about 2.1-fold lower.

`C[C@H]1[C@H](C)CC[C@]2(C(=O)O)CC[C@]3(COC(=O)/C=C\c4ccc(O)cc4)C(=CC[C@@H]4[C@@]5(C)CC[C@H](O)[C@@](C)(CO)[C@@H]5CC[C@]43C)[C@H]12` showed an IC50 of 194 µM. Against the preceding compound, the IC50 is about 2.7-fold higher.

For `C=C1[C@@H](O)[C@H](O)C[C@]2(C)[C@H]3CC=C4[C@@H]5[C@@H](C)[C@H](C)CC[C@]5(C(=O)O)CC[C@@]4(C)[C@]3(C)CC[C@@H]12` [ILEKUDINOL B], 44 µM corresponded to half-maximal inhibition (IC50). Regarding `C=C1[C@@H](O)[C@H](O)C[C@]2(C)[C@H]3[C@@H]4O[C@@H]4[C@]45OC(=O)[C@@]6(CC[C@@H](C)[C@H](C)[C@H]64)CC[C@@]5(C)[C@]3(C)CC[C@@H]12` [ULMOIDOL], the IC50 was 468 µM.

Compound `C=C(C)[C@@H]1CC[C@]2(CO)CC[C@]3(C)[C@H](CC[C@@H]4[C@@]5(C)CC[C@H](O)[C@](C)(CO)[C@@H]5CC[C@]43C)[C@@H]12` [ILEKUDINOL C] had an IC50 of 328 µM. For `C[C@H]1[C@H](C)CC[C@]2(C(=O)O)CC[C@]3(C)C(=CC[C@@H]4[C@@]5(C)CC[C@H](O)[C@@](C)(CO)[C@@H]5CC[C@]43C)[C@H]12`, the IC50 worked out at 64 µM. Compared with the last compound, the IC50 is about 5.1-fold lower.
